# According to ChEMBL document CHEMBL3046129, “Synthesis and pharmacological evaluation of N-(6-chlorobenzo[d]thiazol-2-yl)hydrazine carboxamide derivatives of benzothiazole” (Med Chem Res, 2013):
# Experiments:
# Rattus norvegicus [1] = assay: Anti-inflammatory activity in Wistar Rattus norvegicus (rat) assessed as inhibition of carrageenan-induced paw edema at 70 mg/kg, po administered 1 hr prior to carrageenan-challenge measured after 4 hr by plethysmometer analysis; type: functional
# Rattus norvegicus [2] = assay: Potency index, Rattus norvegicus (rat)io of ibuprofen anti-inflammatory activity to compound anti-inflammatory activity in Wistar Rattus norvegicus (rat) at 70 mg/kg, po administered 1 hr prior to carrageenan-challenge measured after 4 hr by plethysmometer analysis; type: functional
# Rattus norvegicus [3] = assay: Anti-inflammatory activity in Wistar Rattus norvegicus (rat) assessed as inhibition of carrageenan-induced paw edema at 70 mg/kg, po administered 1 hr prior to carrageenan-challenge measured after 3 hr by plethysmometer analysis; type: functional
# Rattus norvegicus [4] = assay: Effect on lipid peroxidation in Wistar Rattus norvegicus (rat) gastric mucosa assessed as malondialdehyde content at 210 mg/kg, po measured per 100 mg of tissue by UV spectrophotometric analysis (reference value: 3.26 +/-0.01 nmol); type: ADME, organism-based; design: dose 210 mg/kg, route oral; details: in vivo
# Mus musculus [5] = assay: Potency index, ratio of ibuprofen analgesic activity to compound analgesic in Swiss albino Mus musculus (mouse) at 70 mg/kg, po measured after 4 hr by tail immersion method; type: functional
# Rattus norvegicus [6] = assay: Gastrointestinal toxicity in Wistar Rattus norvegicus (rat) assessed as ulcerogenicity index at 210 mg/kg, po (reference value: 0 No unit); type: organism-based; design: dose 210 mg/kg, route oral; details: in vivo
# Mus musculus [7] = assay: Analgesic activity in Swiss albino Mus musculus (mouse) assessed as time required for tail withdrawal at 70 mg/kg, po measured after 4 hr by tail immersion method; type: functional
# Mus musculus [8] = assay: Analgesic activity in Swiss albino Mus musculus (mouse) assessed as inhibition of pain at 70 mg/kg, po measured after 4 hr by tail immersion method; type: functional
# Rattus norvegicus [9] = assay: Hepatotoxicity in Wistar albino Rattus norvegicus (rat) assessed as serum glutamate oxaloacetate transaminase activity at 210 mg/kg, po qd for 15 days (reference value: 143.71 +/-1.10 units/ml); type: toxicity, organism-based; design: dose 210 mg/kg, route oral; details: in vivo, 360 h
# Rattus norvegicus [10] = assay: Hepatotoxicity in Wistar albino Rattus norvegicus (rat) assessed as hepatocyte necrosis and degeneRattus norvegicus (rat)ion at 210 mg/kg, po qd for 15 days measured after 24 hr of last dosage of drug by hematoxylin-eosin staining based light microscopy; type: toxicity, organism-based; design: dose 210 mg/kg, route oral; details: hepatocytes
# Rattus norvegicus [11] = assay: Hepatotoxicity in Wistar albino Rattus norvegicus (rat) assessed as hepatocyte with clearing of cytoplasm and compression of sinusoidal spaces at 210 mg/kg, po qd for 15 days measured after 24 hr of last dosage of drug by hematoxylin-eosin staining based light microscopy; type: toxicity, organism-based, Sinusoidal space; design: dose 210 mg/kg, route oral; details: hepatocytes
# Rattus norvegicus [12] = assay: Hepatotoxicity in Wistar albino Rattus norvegicus (rat) assessed as serum total protein level at 210 mg/kg, po qd for 15 days (reference value: 1.72 +/-0.02 g/dl); type: toxicity, organism-based; design: dose 210 mg/kg, route oral; details: in vivo, 360 h
# Rattus norvegicus [13] = assay: Hepatotoxicity in Wistar albino Rattus norvegicus (rat) assessed as serum glutamate pyruvate transaminase activity at 210 mg/kg, po qd for 15 days (reference value: 32.46 +/-0.76 units/ml); type: toxicity, organism-based; design: dose 210 mg/kg, route oral; details: in vivo, 360 h
# Rattus norvegicus [14] = assay: Hepatotoxicity in Wistar albino Rattus norvegicus (rat) assessed as serum total albumin level at 210 mg/kg, po qd for 15 days (reference value: 1.63 +/-0.02 g/dl); type: toxicity, organism-based; design: dose 210 mg/kg, route oral; details: in vivo, 360 h
# Rattus norvegicus [15] = assay: Hepatotoxicity in Wistar albino Rattus norvegicus (rat) assessed as serum alkaline phosphatase activity at 210 mg/kg, po qd for 15 days; type: toxicity, organism-based; design: dose 210 mg/kg, route oral; details: in vivo, 360 h
Compound,Activity (Rattus norvegicus [4]) [nmol],inhibition in vivo at 70 mg/kg (Rattus norvegicus [1]) [%],Ratio (Rattus norvegicus [2]),inhibition in vivo at 70 mg/kg (Rattus norvegicus [3]) [%],Ratio (Mus musculus [5]),UI (Rattus norvegicus [6]),Time (Mus musculus [7]) [s],inhibition in vivo at 70 mg/kg (Mus musculus [8]) [%],Activity (Rattus norvegicus [9]) [U/ml],Activity (Rattus norvegicus [10]),Activity (Rattus norvegicus [11]),Activity (Rattus norvegicus [12]) [g/dL],Activity (Rattus norvegicus [13]) [U/ml],Activity (Rattus norvegicus [14]) [g/dL],Activity (Rattus norvegicus [15])
O=[N+]([O-])c1ccc(-c2nn3c(Nc4nc5ccc(Cl)cc5s4)nnc3s2)cc1,,66.7,0.8,53.3,,,,,,,,,,,
Clc1ccc2nc(Nc3nnc(-c4ccccc4Cl)o3)sc2c1,,53.2,0.64,53,,,,,,,,,,,
Cc1ccccc1-c1nnc(Nc2nc3ccc(Cl)cc3s2)o1,,37.7,0.45,23.9,,,,,,,,,,,
CC(=O)Oc1ccccc1-c1nnc(Nc2nc3ccc(Cl)cc3s2)o1,,50.8,0.61,31,,,,,,,,,,,
CC.O=[N+]([O-])c1ccc(-c2nnc(Nc3nc4ccc(Cl)cc4s3)o2)cc1,,32.5,0.39,19.2,,,,,,,,,,,
Clc1ccc2nc(Nc3nnc4sc(-c5ccccc5Cl)nn34)sc2c1,,50.8,0.61,41.7,,,,,,,,,,,
Clc1ccc(-c2nn3c(Nc4nc5ccc(Cl)cc5s4)nnc3s2)c(Cl)c1,5.74,89.6,1.08,80,0.92,0.925,2.21,75.4,,,,,,,
CC(=O)Oc1ccccc1-c1nn2c(Nc3nc4ccc(Cl)cc4s3)nnc2s1,,20.6,0.24,10,,,,,,,,,,,
Clc1ccc2nc(Nc3nnc4sc(Oc5ccccc5)nn34)sc2c1,3.04,89.7,1.08,78.3,0.91,0.666,2.17,75,131.18,Non-toxic,Toxic,1.79,28.33,1.74,Non-toxic
Clc1ccc2nc(Nc3nnc4sc(-c5ccccc5)nn34)sc2c1,,57.9,0.7,48.3,,,,,,,,,,,
CC(C)Cc1ccc(C(C)C(=O)O)cc1 (stereo not given) [IBUPROFEN],7.51,82.7,,78.2,,2.315,2.6,73.5,140.14,,,1.74,34.26,1.71,Toxic

# The next lines start with results.
Activity (Rattus norvegicus [4]) [nmol],Compound,inhibition in vivo at 70 mg/kg (Rattus norvegicus [1]) [%],Ratio (Rattus norvegicus [2]),inhibition in vivo at 70 mg/kg (Rattus norvegicus [3]) [%],Ratio (Mus musculus [5]),UI (Rattus norvegicus [6]),Time (Mus musculus [7]) [s],inhibition in vivo at 70 mg/kg (Mus musculus [8]) [%],Activity (Rattus norvegicus [9]) [U/ml],Activity (Rattus norvegicus [10]),Activity (Rattus norvegicus [11]),Activity (Rattus norvegicus [12]) [g/dL],Activity (Rattus norvegicus [13]) [U/ml],Activity (Rattus norvegicus [14]) [g/dL],Activity (Rattus norvegicus [15])
4.47,Clc1ccc2nc(Nc3nnc(-c4ccccc4)o3)sc2c1,88.3,1.06,78.8,0.74,1.667,1.45,61.1,,,,,,,
3.29,Clc1ccc(-c2nnc(Nc3nc4ccc(Cl)cc4s3)o2)c(Cl)c1,87.1,1.05,80,0.96,0.917,2.22,79,138.42,Non-toxic,Toxic,1.75,30.74,1.7,Non-toxic
9.1,Clc1ccc2nc(Nc3nnc(Oc4ccccc4)o3)sc2c1,88.8,1.07,74.2,0.63,1.083,1.9,52,,,,,,,
9.04,Sc1nnc(Nc2nc3ccc(Cl)cc3s2)o1,69.8,0.84,61.7,0.88,2.166,2.24,72.3,,,,,,,
7.44,Cc1ccccc1-c1nn2c(Nc3nc4ccc(Cl)cc4s3)nnc2s1,88.8,1.07,77.5,0.93,1.583,2.83,76.9,,,,,,,
